Results on 22 compounds are retold here after patent US8133884B2, “Compounds for the treatment of hepatitis C” (priority 2008, dated 2012).

Each structure is given as a SMILES string. Where two headings read alike, the source gives them in different places.

In test [1] the test system is 1a replicon. The test can be described thus: HCV replicon assay with a 1a replicon. Type of test: cell-based. Conditions: Hepatitis C virus. An excerpt:
To perform the HCV FRET screening assay, 96-well cell culture plates were used, The FRET peptide (Anaspec, Inc.) (Taliani et al., Anal. Biochem., 240:60-67 (1996)) contains a fluorescence donor, EDANS, near one end of the peptide and an acceptor, DABCYL, near the other end. The fluorescence of the peptide is quenched by […] resonance energy transfer (RET) between the donor and the acceptor, but as the NS3 protease cleaves the peptide the products are released from RET quenching and the fluorescence of the donor becomes apparent. The assay reagent was made as follows: 5× cell Luciferase cell culture lysis reagent from Promega (#E153A) diluted to 1× with dH2O, NaCl added to 150 mM final, the FRET peptide diluted to 20 μM final from a 2 mM stock.
To prepare plates, HCV replicon cells, with or without a Renilla luciferase reporter gene, were trypsinized and placed into each well of a 96-well plate with titrated test compounds added in columns 3 through 12; columns 1 and 2 contained a control compound (HCV protease inhibitor), and the bottom row contained cells without compound. The plates were then placed in a CO2 incubator at 37° C.
Subsequent to addition of the test compounds described above (FRET Assay Preparation), at various times the plate was removed and Alamar blue solution (Trek Diagnostics, #00-100) was added per well as a measure of cellular toxicity. After reading in a CYTOFLUOR® 4000 instrument (PE Biosystems), plates were rinsed with PBS and then used for FRET assay by the addition of 30 ul of the FRET peptide assay reagent described above (FRET Assay Preparation) per well. The plate was then placed into the CYTOFLUOR® 4000 instrument which had been set to 340 excite/490 emission, automatic mode for 20 cycles and the plate read in a kinetic mode. Typically, the signal to noise using an endpoint analysis after the reads was at least three-fold. Alternatively, after Alamar blue reading, plates were rinsed with PBS, 50 ul of DMEM (high glucose) without phenol red was added and plates were then used for luciferase assay using the Promega DUAL-GLO® Luciferase Assay System.
Compound analysis was determined by quantification of the relative HCV replicon inhibition and the relative cytotoxicity values. To calculate cytoxicity values, the average Alamar Blue fluorescence signals from the control wells were set as 100% non-toxic. The individual signals in each of the compound test wells were then divided by the average control signal and multiplied by 100% to determine […]. To calculate the HCV replicon inhibition values, an average background value was obtained from the two wells containing the highest amount of HCV protease inhibitor at the end of the assay period. These numbers were similar to those obtained from naïve Huh-7 cells. […]

The subject of test [2] is HCV replicon. Description: HCV replicon assay (FRET or luciferase reporter). Type of test: cell-based. Conditions: one of the methods described. Put shortly: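 HCV replicon Huh-7 cells were exposed to titrated compound at 37 °C, with Alamar blue as a cytotoxicity read. Replication was measured by NS3 cleavage of an EDANS/DABCYL FRET peptide (20 μM, 340/490 nm kinetic read) or by Renilla luciferase, with background from high-dose protease inhibitor wells. EC50 was taken as 50% signal reduction; a 384-well format used 3.0×10^3 cells/well, 0.5% DMSO and 3 days.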

Test [3] concerns the target T1, HCV NS5B (Hepatitis C virus genotype 1b, UniProt Q9WMX2).
T1 construct: The protein was expressed with an 18 amino acid C-terminal truncation to enhance the solubility; made in house; host or cells: E. coli BL21(DE3)
The test can be described thus: Modified HCV NS5B RdRp enzyme assay (preincubation protocol). In kind it is biochemical. Put shortly:
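C-terminally truncated (Δ18) genotype 1b NS5B from E. coli, 14 nM, added to compound first, then polyA template (0.2 nM), 3H-UTP (0.29 μM) and oligo-dT12 primer precaptured on streptavidin SPA beads (20 nM). Run 4 h at 30° C, pH 7.5, 2% DMSO; IC50 fitted from seven concentrations.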

The mark [4] stands for this setting: determined similarly but with a 1a replicon, class symbol, read-out: EC50.
[5] abbreviates: Hepatitis C virus, class symbol.

T1 sequence (Q9WMX2 2420-2992): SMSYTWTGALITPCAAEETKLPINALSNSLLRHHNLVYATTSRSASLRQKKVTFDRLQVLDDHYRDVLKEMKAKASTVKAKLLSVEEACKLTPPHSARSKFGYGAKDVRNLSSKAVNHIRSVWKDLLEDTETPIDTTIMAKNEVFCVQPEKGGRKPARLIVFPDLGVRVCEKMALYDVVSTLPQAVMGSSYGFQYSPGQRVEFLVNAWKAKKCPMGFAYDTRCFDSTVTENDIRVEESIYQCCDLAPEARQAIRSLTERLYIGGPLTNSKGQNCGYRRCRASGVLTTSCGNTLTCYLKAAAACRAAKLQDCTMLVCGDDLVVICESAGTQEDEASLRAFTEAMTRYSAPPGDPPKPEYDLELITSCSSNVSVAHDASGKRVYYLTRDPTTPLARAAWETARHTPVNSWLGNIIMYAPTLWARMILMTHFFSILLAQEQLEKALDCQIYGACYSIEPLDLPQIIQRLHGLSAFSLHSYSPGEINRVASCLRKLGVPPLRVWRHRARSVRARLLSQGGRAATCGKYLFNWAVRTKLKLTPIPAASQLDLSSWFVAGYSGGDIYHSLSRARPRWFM

In the case of `COc1ccc2c(c1)C=C(c1c(C(=O)N3C[C@@H](C)N(C)[C@@H](C)C3)c(C(C)C)nn1C1CC1)Cn1c-2c(C2CCCCC2)c2ccc(C(=O)NS(=O)(=O)C(C)C)cc21`, in test [1] (setting [4]), the EC50 was 1.7 to 500 nM.
On to `COc1ccc2c(c1)C=C(c1c(C(=O)N3C[C@@H](C)O[C@@H](C)C3)c(C(C)C)nn1C1CC1)Cn1c-2c(C2CCCCC2)c2ccc(C(=O)NS(=O)(=O)C(C)C)cc21`, for which, in test [1] (setting [4]), the EC50 lay within 1.7 to 500 nM.
In the case of `COc1ccc2c(c1)C=C(c1c(C(=O)N3C4CCC3CN(C)C4)c(C(C)C)nn1C1CC1)Cn1c-2c(C2CCCCC2)c2ccc(C(=O)NS(=O)(=O)C(C)C)cc21`, the EC50 in test [1] was 1.7 to 500 nM.
Still for that read-out and setting: as for `COc1ccc2c(c1)C=C(c1c(C(=O)N3C4CCC3COC4)c(C(C)C)nn1C1CC1)Cn1c-2c(C2CCCCC2)c2ccc(C(=O)NS(=O)(=O)C(C)C)cc21`, the figure is 1.7 to 500 nM.
For the compound `COc1ccc2c(c1)C=C(c1c(C(=O)N3C[C@@H](C)O[C@@H](C)C3)cnn1C1CCC1)Cn1c-2c(C2CCCCC2)c2ccc(C(=O)NS(=O)(=O)N(C)C)cc21` [drawing 260], the EC50 in test [2] (class symbol) lay within 1.7 to 500 nM. The compound further yielded an IC50 in test [3] (class symbol) of 1.7 to 500 nM.
For the compound `COc1ccc2c(c1)C=C(c1c(C(=O)N3CCN(C4CCCC4)CC3)cnn1C1CCC1)Cn1c-2c(C2CCCCC2)c2ccc(C(=O)NS(=O)(=O)C(C)C)cc21`, the EC50 in test [2] (setting [5]) lay in the range of 1.7 to 500 nM. In test [3] (class symbol), the half-maximal inhibitory concentration (IC50) lay within 1.7 to 500 nM.
For the compound `COc1ccc2c(c1)C=C(c1c(C(=O)N3C[C@@H](C)N(C)[C@@H](C)C3)cnn1C1CCOCC1)Cn1c-2c(C2CCCCC2)c2ccc(C(=O)NS(=O)(=O)CC(C)C)cc21`, the 50% effective concentration (EC50) in test [2] (setting [5]) lay in the range of 1.7 to 500 nM. For the same compound, the half-maximal inhibitory concentration (IC50) in test [3] (class symbol) was in the range of 1.7 to 500 nM.
The compound `COc1ccc2c(c1)C=C(c1c(C(=O)N3C4CCC3CC(C)(O)C4)cnn1C1CCC1)Cn1c-2c(C2CCCCC2)c2ccc(C(=O)NS(=O)(=O)CC(C)C)cc21` (stereo not shown) registered a half-maximal effective concentration (EC50) in test [2] (setting [5]) of 1.7 to 500 nM. Besides, the IC50 in test [3] (class symbol) was in the range of 1.7 to 500 nM.
`COc1ccc2c(c1)C=C(c1c(C(=O)N3C4CCCCC3CCC4)cnn1C1CCC1)Cn1c-2c(C2CCCCC2)c2ccc(C(=O)NS(=O)(=O)C(C)C)cc21`: the concentration giving a half-maximal response (EC50) was 1.7 to 500 nM in test [2] (setting [5]) and 400 nM in test [2] (Hepatitis C virus, exact value). In addition, the IC50 was 1.7 to 500 nM in test [3] (class symbol) and 7 nM in test [3] (exact value).
As for `COc1ccc2c(c1)C=C(c1c(C(=O)N3CC4CCC(C3)N4C)c(C)nn1C1CCC1)Cn1c-2c(C2CCCCC2)c2ccc(C(=O)NS(=O)(=O)C(C)C)cc21`, the half-maximal effective concentration (EC50) in test [2] (setting [5]) lay in the range of 1.7 to 500 nM. This compound came in with an IC50 in test [3] (class symbol) of 1.7 to 500 nM.
In test [2] (setting [5]), `COc1ccc2c(c1)C=C(c1c(C(=O)N3C[C@@H](C)O[C@@H](C)C3)cnn1-c1ccnc(C)c1)Cn1c-2c(C2CCCCC2)c2ccc(C(=O)NS(=O)(=O)C(C)C)cc21` came in with an EC50 of 1.7 to 500 nM. Moreover, the 50% inhibitory concentration (IC50) in test [3] (class symbol) is 1.7 to 500 nM.
`COc1ccc2c(c1)C=C(c1nn(C3CC3)cc1C(=O)N1CCOCC1)Cn1c-2c(C2CCCCC2)c2ccc(C(=O)NS(=O)(=O)C(C)C)cc21` displayed a half-maximal effective concentration (EC50) in test [2] (setting [5]) of 1.7 to 500 nM. Also, the IC50 in test [3] (class symbol) was 1.7 to 500 nM.
As for `COc1ccc2c(c1)C=C(c1c(C(=O)N3C[C@@H](C)O[C@@H](C)C3)cnn1C1CCN(C)CC1)Cn1c-2c(C2CCCCC2)c2ccc(C(=O)NS(=O)(=O)C(C)C)cc21`, the EC50 in test [2] (setting [5]) was 1.7 to 500 nM; in test [2] (Hepatitis C virus, exact value), 5.5 nM. The IC50 is 1.7 to 500 nM in test [3] (class symbol) and 5.4 nM in test [3] (exact value).
For `COc1ccc2c(c1)C=C(c1c(C(=O)N3CCOCC3)ncn1C1CCC1)Cn1c-2c(C2CCCCC2)c2ccc(C(=O)NS(=O)(=O)C(C)C)cc21`, the EC50 was 1.7 to 500 nM in test [2] (setting [5]) and 70 nM in test [2] (Hepatitis C virus, exact value). Besides, the IC50 in test [3] (class symbol) is 1.7 to 500 nM; in test [3] (exact value) it was 9.7 nM.
With `COc1ccc2c(c1)C=C(c1c(C(=O)N3C4COCC3COC4)cnn1-c1ccncc1C)Cn1c-2c(C2CCCCC2)c2ccc(C(=O)NS(=O)(=O)C(C)C)cc21`, in test [2] (setting [5]), the 50% effective concentration (EC50) fell in the range of 1.7 to 500 nM. This compound registered an IC50 in test [3] (class symbol) of 1.7 to 500 nM.
With `COc1ccc2c(c1)C=C(c1c(C(=O)N3CCOCC3)ncn1C1CC1)Cn1c-2c(C2CCCCC2)c2ccc(C(=O)NS(=O)(=O)C(C)C)cc21`, the EC50 in test [2] (setting [5]) fell in the range of 1.7 to 500 nM. This compound came in with an IC50 in test [3] (class symbol) of 1.7 to 500 nM.
Compound `COc1ccc2c(c1)C=C(c1c(C(=O)N3C[C@@H]4C[C@H]3CN4C)cnn1C1CCC1)Cn1c-2c(C2CCCCC2)c2ccc(C(=O)NS(=O)(=O)C(C)C)cc21` had an EC50 in test [2] (setting [5]) of 1.7 to 500 nM. Further, the 50% inhibitory concentration (IC50) in test [3] (class symbol) fell in the range of 1.7 to 500 nM.
Compound `COc1ccc2c(c1)C=C(c1c(C(=O)N3CC4CCC(C3)N4C)cnn1C1CCC1)Cn1c-2c(C2CCCCC2)c2ccc(C(=O)NS(=O)(=O)CC(C)C)cc21` gave an EC50 in test [2] (setting [5]) of 1.7 to 500 nM. Also, the concentration for half-maximal inhibition (IC50) in test [3] (class symbol) fell in the range of 1.7 to 500 nM.
`COc1ccc2c(c1)C=C(c1c(C(=O)N3C[C@@H](C)N(C)[C@@H](C)C3)cnn1C1CCC1)Cn1c-2c(C2CCCCC2)c2ccc(C(=O)NS(=O)(=O)CC(C)C)cc21`: the 50% effective concentration (EC50) in test [2] (setting [5]) lay within 1.7 to 500 nM. The IC50 in test [3] (class symbol) is 1.7 to 500 nM.
`COc1ccc2c(c1)C=C(c1c(C(=O)N3C[C@@H](C)N(C)[C@@H](C)C3)cnn1C1CCC1)Cn1c-2c(C2CCCCC2)c2ccc(C(=O)NS(=O)(=O)C(C)C)cc21` came in with a half-maximal effective concentration (EC50) in test [2] (setting [5]) of 1.7 to 500 nM. For the same compound, the 50% inhibitory concentration (IC50) in test [3] (class symbol) was in the range of 1.7 to 500 nM.
Regarding `COc1ccc2c(c1)C=C(c1c(C(=O)N3C4CCC3COC4)c(C)nn1C1CCC1)Cn1c-2c(C2CCCCC2)c2ccc(C(=O)NS(=O)(=O)C(C)C)cc21`, the EC50 in test [2] (setting [5]) was in the range of 1.7 to 500 nM. The compound also had an IC50 in test [3] (class symbol) of 1.7 to 500 nM.
In test [2] (setting [5]), `COc1ccc2c(c1)C=C(c1c(C(=O)N3CCOCC3)cnn1C1CCN(C)CC1)Cn1c-2c(C2CCCCC2)c2ccc(C(=O)NS(=O)(=O)C(C)C)cc21` displayed an EC50 of 1.7 to 500 nM. Besides, the 50% inhibitory concentration (IC50) in test [3] (class symbol) lay within 1.7 to 500 nM.
